Earlier results, collected in patent US20240093147A1, “GLIA-LIKE CELLS DIFFERENATIATED FROM SOMATIC CELLS, PREPARATION METHOD THEREFOR, COCKTAIL COMPOSITION FOR PREPARING SAME, CELL THERAPEUTIC AGENT FOR PREVENTING OR TREATING NEUROLOGICAL DISORDERS, COMPRISING SAME, AND METHOD FOR PREVENTING AND TREATING NEUROLOGICAL DISORDERS BY ADMINISTERING SAME” (CELLAPEUTICS BIO, priority 2019, published 2024).

Key:
[1] = forskolin, cAMP agonist
HDAC = settings: valproic acid, HDAC inhibitor

IC50 [1] [µM] | IC50 (HDAC) [µM] | Compound
0.5 |  | C=C[C@@]1(C)CC(=O)[C@]2(O)[C@@]3(C)[C@@H](O)CCC(C)(C)[C@@H]3[C@H](O)[C@H](OC(C)=O)[C@@]2(C)O1 [Forskolin, forskolin]
 | 2000 | CCCC(CCC)C(=O)O [Valproic Acid, valproic acid]
